Structures can show the parent of a compound that is named as a salt. Where two headings read alike, the source gives them in different places.
Target: T1, recombinant human beta tryptase (Homo sapiens, UniProt P20231)
T1 construct: made in house; host or cells: yeast cells
Test: beta-Tryptase inhibition, chromogenic enzyme assay (substrate S2366, read at 405 nm)
Format: biochemical
Summary of the method: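 Recombinant human beta tryptase (yeast-expressed; native lung enzyme also used), 50 ng/mL final, with 0.5 mM (2×Km) chromogenic substrate S2366; 30 min in the dark, room temperature, read at 405 nm. Compounds at 0.01-10 μM in duplicate for IC50; Ki=IC50/(1+[S]/Km).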

[1] = Ki calculated from IC50: Ki=IC50/(1+[Substrate]/Km), 0.5 mM substrate, room temperature, read-out: Tryptase Ki
[2] = Tryptase Ki (nM), Ki calculated from IC50: Ki=IC50/(1+[Substrate]/Km), 0.5 mM substrate, room temperature
[3] = Tryptase Ki (nM), additional value in parentheses tagged "8923" (code not explained)

T1 sequence (P20231 31-275): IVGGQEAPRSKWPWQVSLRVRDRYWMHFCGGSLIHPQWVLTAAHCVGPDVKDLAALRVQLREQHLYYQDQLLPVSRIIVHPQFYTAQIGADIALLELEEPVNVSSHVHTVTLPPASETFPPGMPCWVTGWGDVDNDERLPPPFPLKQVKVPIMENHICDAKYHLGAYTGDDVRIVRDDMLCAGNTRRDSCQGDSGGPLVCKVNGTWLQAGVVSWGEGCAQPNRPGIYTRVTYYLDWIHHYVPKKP

Row | Structure (SMILES) | Ki [2] [nM] | other results
1 | COCCn1cc(C(=O)N2CCC(c3cc(CN)ccc3F)CC2)c2c(-c3ccnc(C)c3)cccc21 [Example 83, [4-(5-Aminomethyl-2-fluoro-phenyl)-piperidin-1-yl]-[1-(2-methoxy-ethyl)-4-(2-methyl-pyridin-4-yl)-1H-indol-3-yl]-methanone dihydrochloride] | – | Ki [1]: 5 nM
2 | COCCn1cc(C(=O)N2CCC(c3cc(CN)ccc3F)CC2)c2c(-c3cncc(F)c3)cccc21 [Example 84, [4-(5-Aminomethyl-2-fluoro-phenyl)-piperidin-1-yl]-[4-(5-fluoro-pyridin-3-yl)-1-(2-methoxy-ethyl)-1H-indol-3-yl]-methanone dihydrochloride] | – | Ki [1]: 22 nM
3 | COCCn1cc(C(=O)N2CCC(c3cc(CN)ccc3F)CC2)c2c(-c3ccnc(OC)c3)cccc21 [Example 85, [4-(5-Aminomethyl-2-fluoro-phenyl)-piperidin-1-yl]-[1-(2-methoxy-ethyl)-4-(2-methoxy-pyridin-4-yl)-1H-indol-3-yl]-methanone dihydrochloride] | – | Ki [1]: 9 nM
4 | NCc1ccc(F)c(C2CCN(C(=O)c3cn(CCOC(F)(F)F)c4c(F)cccc34)CC2)c1 [Example 86, [4-(5-Aminomethyl-2-fluoro-phenyl)-piperidin-1-yl]-[7-fluoro-1-(2-trifluoromethoxy-ethyl)-1H-indol-3-yl]-methanone hydrochloride] | 80 | –
5 | NCc1ccc(F)c(C2CCN(C(=O)c3cn(CCOC(F)(F)F)c4c(Cl)cccc34)CC2)c1 [Example 87, hydrochloride] | 207 | –
6 | Cc1cccc2c(C(=O)N3CCC(c4cc(CN)ccc4F)CC3)cn(CCOC(F)(F)F)c12 [Example 88, hydrochloride] | 239 | –
7 | COCCn1cc(C(=O)N2CCC(c3cc(CN)ccc3F)CC2)c2c(-c3ccnn3C)cccc21 [Example 89, [4-(5-Aminomethyl-2-fluoro-phenyl)-piperidin-1-yl]-[1-(2-methoxy-ethyl)-4-(2-methyl-2H-pyrazol-3-yl)-1H-indol-3-yl]-methanone dihydrochloride] | – | Ki [1]: 11 nM
8 | NCc1ccc(F)c(C2CCN(C(=O)c3cn(CCOC(F)(F)F)c4cccc(F)c34)CC2)c1 [Example 90, [4-(5-Aminomethyl-2-fluoro-phenyl)-piperidin-1-yl]-[4-fluoro-(2-trifluoromethoxy-ethyl)-1H-indol-3-yl]-methanone hydrochloride] | 396 | –
9 | COCCn1cc(C(=O)N2CCC(c3cc(CN)ccc3F)CC2)c2c(C(=O)N(C)C)cccc21 [Example 91, 3-[4-(5-Aminomethyl-2-fluoro-phenyl)-piperidine-1-carbonyl]-1-(2-methoxy-ethyl)-1H-indol-4-carboxylic acid dimethylamide hydrochloride] | 20 | Ki (Tryptase Ki (nM), additional value in parentheses tagged "719" (code not explained)): 54 nM; Ki [3]: 28 nM
10 | NCc1ccc(F)c(C2CCN(C(=O)c3cn(CCOC(F)(F)F)c4cccc(-c5cncnc5)c34)CC2)c1 [Example 92, [4-(5-Aminomethyl-2-fluoro-phenyl)-piperidin-1-yl]-[4-pyrimidin-5-yl-1-(2-trifluoromethoxy-ethyl)-1H-indol-3-yl]-methanone dihydrochloride] | 90 | –
11 | CCCn1cc(-c2cccc3c2c(C(=O)N2CCC(c4cc(CN)ccc4F)CC2)cn3CCOC(F)(F)F)cn1 [Example 93, [4-(5-Aminomethyl-2-fluoro-phenyl)-piperidin-1-yl]-[4-(1-propyl-1H-pyrazol-4-yl)-1-(2-trifluoromethoxy-ethyl)-1H-indol-3-yl]-methanone dihydrochloride] | – | Ki [1]: 160 nM
12 | COCCn1cc(C(=O)N2CCC(c3cc(CN)ccc3F)CC2)c2c(C(=O)N3CCCCC3)cccc21 [Example 94, [4-(5-Aminomethyl-2-fluoro-phenyl)-piperidine-1-yl]-[1-(2-methoxy-ethyl)-4-(piperidine-1-carbonyl)-1H-indol-3-yl]-methanone hydrochloride] | 21 | –
13 | COCCn1cc(C(=O)N2CCC(c3cc(CN)ccc3F)CC2)c2c(NC(=O)C3CCOCC3)cccc21 [Example 95, Tetrahydro-pyran-4-carboxylic acid [3-[4-(5-aminomethyl-2-fluoro-phenyl)-piperidine-1-carbonyl]-1-(2-methoxy-ethyl)-1H-indol-4-yl]-amide hydrochloride] | 44 | Ki (Tryptase Ki (nM), additional value in parentheses tagged "719D" (code not explained)): 47 nM; Ki [3]: 15 nM
14 | COCCn1cc(C(=O)N2CCC(c3cc(CN)ccc3F)CC2)c2c(NC(C)=O)cccc21 [Example 96, N-[3-[4-(5-Aminomethyl-2-fluoro-phenyl)-piperidine-1-carbonyl]-1-(2-methoxy-ethyl)-1H-indol-4-yl]-acetamide hydrochloride] | 18 | –
15 | COCCn1cc(C(=O)N2CCC(c3cc(CN)ccc3F)CC2)c2c(NC(=O)C3CCN(C)CC3)cccc21 [Example 97, 1-Methyl-piperidine-4-carboxylic acid [3-[4-(5-aminomethyl-2-fluoro-phenyl)-piperidine-1-carbonyl]-1-(2-methoxy-ethyl)-1H-indol-4-yl]-amide hydrochloride] | 28 | –
16 | COCCn1cc(C(=O)N2CCC(c3cc(CN)ccc3F)CC2)c2c(NC(=O)C3CC4CCC3C4)cccc21 (centres unmarked) [Example 98, Bicyclo[2.2.1]heptane-2-carboxylic acid [3-[4-(5-aminomethyl-2-fluoro-phenyl)-piperidine-1-carbonyl]-1-(2-methoxy-ethyl)-1H-indol-4-yl]-amide hydrochloride] | 147 | –
17 | COCCn1cc(C(=O)N2CCC(c3cc(CN)ccc3F)CC2)c2c(NC(=O)N3CCOCC3)cccc21 [Example 99, Morpholine-4-carboxylic acid [3-[4-(5-aminomethyl-2-fluoro-phenyl)-piperidine-1-carbonyl]-1-(2-methoxy-ethyl)-1H-indol-4-yl]-amide hydrochloride] | 25 | –
18 | COCCn1cc(C(=O)N2CCC(c3cc(CN)ccc3F)CC2)c2c(NC(=O)N(C)C)cccc21 [Example 100, 3-[3-[4-(5-Aminomethyl-2-fluoro-phenyl)-piperidine-1-carbonyl]-1-(2-methoxy-ethyl)-1H-indol-4-yl]-1,1-dimethyl-urea hydrorchloride] | 17 | –
19 | COCCn1cc(C(=O)N2CCC(c3cc(CN)ccc3F)CC2)c2c(NC(=O)c3ccncc3)cccc21 [Example 101, N-[3-[4-(5-Aminomethyl-2-fluoro-phenyl)-piperidine-1-carbonyl]-1-(2-methoxy-ethyl)-1H-indol-4-yl]-isonicotinamide hydrochloride] | 11 | –
20 | COCCn1cc(C(=O)N2CCC(c3cc(CN)ccc3F)CC2)c2c(NC(=O)c3cncnc3)cccc21 [Example 102, Pyrimidine-5-carboxylic acid [3-[4-(5-aminomethyl-2-fluoro-phenyl)-piperidine-1-carbonyl]-1-(2-methoxy-ethyl)-1H-indol-4-yl]-amide hydrochloride] | 22 | –
21 | COCCn1cc(C(=O)N2CCC(c3cc(CN)ccc3F)CC2)c2c(NC(=O)c3ccno3)cccc21 [Example 103, Isoxazole-5-carboxylic acid [3-[4-(5-aminomethyl-2-fluoro-phenyl)-piperidine-1-carbonyl]-1-(2-methoxy-ethyl)-1H-indol-4-yl]-amide hydrochloride] | 41 | –
22 | COCCn1cc(C(=O)N2CCC(c3cc(CN)ccc3F)CC2)c2c(NS(=O)(=O)N(C)C)cccc21 [Example 104, Dimethylamino-1-sulfonic acid [3-[4-(5-aminomethyl-2-fluoro-phenyl)-piperidine-1-carbonyl]-1-(2-methoxy-ethyl)-1H-indol-4-yl]-amide] | 204 | –
23 | COCCn1cc(C(=O)N2CCC(c3cc(CN)ccc3F)CC2)c2c(NS(=O)(=O)c3cn(C)cn3)cccc21 [Example 105, 1-Methyl-1H-imidazole-4-sulfonic acid [3-[4-(5-aminomethyl-2-fluoro-phenyl)-piperidine-1-carbonyl]-1-(2-methoxy-ethyl)-1H-indol-4-yl]-amide hydrochloride] | 100 | –
24 | COCCn1cc(C(=O)N2CCC(c3cc(CN)ccc3F)CC2)c2c(NS(=O)(=O)c3cccnc3)cccc21 [Example 106, Pyridine-3-sulfonic acid [3-[4-(5-aminomethyl-2-fluoro-phenyl)-piperidine-1-carbonyl]-1-(2-methoxy-ethyl)-1H-indol-4-yl]-amide hydrochloride] | 149 | –
25 | CCCCS(=O)(=O)Nc1cccc2c1c(C(=O)N1CCC(c3cc(CN)ccc3F)CC1)cn2CCOC [Example 107, Butane-1-sulfonic acid [3-[4-(5-aminomethyl-2-fluoro-phenyl)-piperidine-1-carbonyl]-1-(2-methoxy-ethyl)-1H-indol-4-yl]-amide hydrochloride] | 315 | –
26 | COCCn1cc(C(=O)N2CCC(c3cc(CN)ccc3F)CC2)c2c(C(=O)N3CCCC3)cccc21 [Example 108, [4-(5-Aminomethyl-2-fluoro-phenyl)-piperidin-1-yl]-[1-(2-methoxy-ethyl)-4-(pyrrolidine-1-carbonyl)-1H-indol-3-yl]-methanone hydrochloride] | 15 | –
27 | COCCn1cc(C(=O)N2CCC(c3cc(CN)ccc3F)CC2)c2c(C(=O)O)cccc21 [Example 109, 3-[4-(5-Aminomethyl-2-fluoro-phenyl)-piperidine-1-carbonyl]-1-(2-methoxy-ethyl)-1H-indole-4-carboxylic acid trifluoroacetate] | – | Ki [1]: 142 nM
28 | COCCn1cc(C(=O)N2CCC(c3cc(CN)ccc3C(F)(F)F)CC2)c2cccc(C)c21 [Example 110, [4-(5-Aminomethyl-2-trifluoromethyl-phenyl)-piperidin-1-yl]-[1-(2-methoxy-ethyl)-7-methyl-1H-indol-3-yl]-methanone hydrochloride] | 1260 | –

— patent US20120245161A1 (SANOFI, priority 2009, published 2012)
